From patent US9820966B2, “Stabilized statin formulations” (Cumberland Pharmaceuticals Inc., priority 2010, dated 2017) come the findings set out here.

Data set [1] is described as follows: Precipitation on dilution into water or saline. The data set is classed as physicochemical.
For data set [2] the following is noted: AS in propylene glycol and ethanol (4/1), pH 11.0; in 2 hours. As for the experimental part: The sample was then vortexed, filtered, after which it was analyzed by HPLC.
Data set [3] is described as follows: Solubility in basic solutions without cyclodextrin (HPLC). The note with it: Sample 1: 20 mg AS in 1 mL, 16.54 mM L-Arg; pH 10.71 with L-Arg (L-Arg alone).

Read-outs that look alike come from different tables or passages of the source.

With `CC(C)c1c(C(=O)Nc2ccccc2)c(-c2ccccc2)c(-c2ccc(F)cc2)n1CC[C@@H](O)C[C@@H](O)CC(=O)O` [AS—Ca, atorvastatin calcium trihydrate], the precipitation on dilution result in data set [1] (Example 12 PG/ethanol/water sample adjusted to pH 7.5, diluted 1:1 into water) is recorded as “precipitated”; in data set [1] (Example 12 PG/ethanol/water sample adjusted to pH 8.0, diluted 1:1 into water), “precipitated”; in data set [1] (anything less than 40% propylene glycol and 10% ethanol, diluted with normal saline) it was “precipitation”; in data set [1] (prepared in non-aqueous co-solvents and then diluted into saline), “precipitate”; in data set [1] (propylene glycol and ethanol (4/1), pH 11.0, diluted 1:3 in saline) it was “precipitated”. Further, the degradation reads like this: (control solution of the same mixture (20% HPβ-CD, pH 8.47), 40° C. for 1 month) approximately 15.5%; (solubilized with HPβ-CD (20%, pH 8.47), lyophilized with manifold freeze dryer, 40° C. for 1 month) approximately 3.5%; (solubilized with HPβ-CD, diluted 1:1 into 8% sucrose, lyophilized with shelf freeze dryer, storage 1 month at 40° C.) “less than 0.1%”.

Take `CC(C)c1c(C(=O)Nc2ccccc2)c(-c2ccccc2)c(-c2ccc(F)cc2)n1CC[C@@H](O)C[C@@H](O)CC(=O)O` [AS, Atorvastatin free acid]: the precipitation on dilution entry is “precipitated” in data set [1] (100% ethanol solution, diluted 1:1 with saline) and “precipitated” in data set [1] (100% propylene glycol solution, diluted 1:1 with saline). In addition, the degradation result in data set [2] is listed as “approximately 50%”. The resulting concentration in data set [3] amounted to 1.91 mg/mL.
